ChEMBL document CHEMBL1201862, “PubChem BioAssay data set” (2004)
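Each compound was tested at five concentrations against cells in 96-well plates for 48 hours. Here, GI50 denotes the concentration required for 50% inhibition of growth.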 Active and inactive are the calls of the source. Cut-off read from the data, not from the text of the source: active = GI50 up to about 1.1 µM and inactive = higher.

How the values were obtained:
Experiment in all cases: growth of human tumour cells (NCI), 48 h
MDA-MB-231 = tested on: MDA-MB-231
Hs-578T = tested on: Hs-578T
HCC 2998 = tested on: HCC 2998
NCI-H23 = tested on: NCI-H23
MDA-MB-435 = tested on: MDA-MB-435
SK-MEL-28 = tested on: SK-MEL-28
A498 = tested on: A498
PC-3 = tested on: PC-3
HOP-92 = tested on: HOP-92
SF-268 = tested on: SF-268
KM12 = tested on: KM12
NCI-H460 = tested on: NCI-H460
ACHN = tested on: ACHN
RPMI-8226 = tested on: RPMI-8226
SNB-19 = tested on: SNB-19
UACC-62 = tested on: UACC-62
SN12C = tested on: SN12C
TK-10 = tested on: TK-10
HL-60 = tested on: HL-60
MCF7 = tested on: MCF7

Row | SMILES | GI50 (MDA-MB-231) | GI50 (Hs-578T) | GI50 (HCC 2998) | GI50 (NCI-H23) | GI50 (MDA-MB-435) | GI50 (SK-MEL-28) | GI50 (A498) | GI50 (PC-3) | GI50 (HOP-92) | GI50 (SF-268) | GI50 (KM12) | GI50 (NCI-H460) | GI50 (ACHN) | GI50 (RPMI-8226) | GI50 (SNB-19) | GI50 (UACC-62) | GI50 (SN12C) | GI50 (TK-10) | GI50 (HL-60) | GI50 (MCF7)
1 | Oc1cc(-c2cccc(Cl)c2)nc2ncccc12 | 0.57 µM (active) | 0.084 µM (active) | 0.0771 µM (active) | 1.54 µM (inactive) | < 0.01 µM (active) | 0.183 µM (active) | 0.53 µM (active) | 0.0248 µM (active) | 21 µM (inactive) | 5.53 µM (inactive) | 0.0515 µM (active) | 0.0605 µM (active) | 3.27 µM (inactive) | 0.05 µM (active) | 0.192 µM (active) | 0.0577 µM (active) | 0.141 µM (active) | 24.3 µM (inactive) | 0.0142 µM (active) | 0.122 µM (active)
2 | CC(=O)/C(=C/NC(=S)c1cccnc1)C(=O)Nc1ccccc1C | > 100 µM (inactive) | > 100 µM (inactive) | > 100 µM (inactive) | > 100 µM (inactive) | > 100 µM (inactive) | > 100 µM (inactive) | > 100 µM (inactive) | 68.9 µM (inactive) | > 100 µM (inactive) | > 100 µM (inactive) | > 100 µM (inactive) | > 100 µM (inactive) | > 100 µM (inactive) | > 100 µM (inactive) | > 100 µM (inactive) | > 100 µM (inactive) | > 100 µM (inactive) | > 100 µM (inactive) | 2.37 µM (inactive) | > 100 µM (inactive)
3 | C[C@@H](CN1CC(=O)NC(=O)C1)N1CC(=O)NC(=O)C1 [DEXRAZOXANE] | 168 µM (inactive) | 320 µM (inactive) | 473 µM (inactive) | 125 µM (inactive) | 395 µM (inactive) | 458 µM (inactive) | 221 µM (inactive) | 180 µM (inactive) | 196 µM (inactive) | 378 µM (inactive) | 522 µM (inactive) | 6.67 µM (inactive) | 139 µM (inactive) | 327 µM (inactive) | 279 µM (inactive) | 147 µM (inactive) | 232 µM (inactive) | 222 µM (inactive) | 51.1 µM (inactive) | 24.4 µM (inactive)
4 | C=C1C(=O)C23CC1C[C@H](OC(C)=O)C2C1(C)C(OC(C)=O)C[C@H](O)C(C)(C)[C@H]1C(O)[C@@H]3OC(C)=O (stereo not given in full) | 7.19 µM (inactive) | 15.8 µM (inactive) | 21.2 µM (inactive) | 12.6 µM (inactive) | 8.09 µM (inactive) | 11.9 µM (inactive) | 15.1 µM (inactive) | 11.1 µM (inactive) | 9.29 µM (inactive) | 13.4 µM (inactive) | 33 µM (inactive) | 26.7 µM (inactive) | 11.9 µM (inactive) | 4.27 µM (inactive) | 21.5 µM (inactive) | 13.3 µM (inactive) | 8.07 µM (inactive) | 3.79 µM (inactive) | 3.66 µM (inactive) | 5.78 µM (inactive)
5 | CC(C)(C)[Si](C)(C)OCC1OC(n2cnc3c(=O)[nH]c(N)nc32)C(O[Si](C)(C)C(C)(C)C)C1O[Si](C)(C)C(C)(C)C (stereo not given) | 3.71 µM (inactive) | 2.46 µM (inactive) | 1.98 µM (inactive) | 1.44 µM (inactive) | 1.47 µM (inactive) | 1.93 µM (inactive) | 2.39 µM (inactive) | 1.55 µM (inactive) | 2.61 µM (inactive) | 2.58 µM (inactive) | 1.64 µM (inactive) | 1.32 µM (inactive) | 2.08 µM (inactive) | 1.14 µM (inactive) | 2.29 µM (inactive) | 1.22 µM (inactive) | 2.2 µM (inactive) | 2.34 µM (inactive) | 0.849 µM (active) | 2.33 µM (inactive)
6 | C[n+]1c2ccccc2n2c3ccccc3c(NCc3ccco3)c(C#N)c21 | 2.21 µM (inactive) | 2.96 µM (inactive) | 0.659 µM (active) | 1.46 µM (inactive) | 1.76 µM (inactive) | 1.99 µM (inactive) | 6.08 µM (inactive) | 2.23 µM (inactive) | 5.94 µM (inactive) | 2.42 µM (inactive) | 2.79 µM (inactive) | 1.1 µM (active) | 1.46 µM (inactive) | 0.546 µM (active) | 3.11 µM (inactive) | 2.84 µM (inactive) | 1.23 µM (inactive) | 1.52 µM (inactive) | 3.17 µM (inactive) | 0.575 µM (active)
7 | Cn1cnc([N+](=O)[O-])c1SCC(=O)O | > 100 µM (inactive) | > 100 µM (inactive) | > 100 µM (inactive) | > 100 µM (inactive) | > 100 µM (inactive) | > 100 µM (inactive) | > 100 µM (inactive) | > 100 µM (inactive) | > 100 µM (inactive) | > 100 µM (inactive) | > 100 µM (inactive) | > 100 µM (inactive) | > 100 µM (inactive) | > 100 µM (inactive) | > 100 µM (inactive) | > 100 µM (inactive) | > 100 µM (inactive) | > 100 µM (inactive) | > 100 µM (inactive) | > 100 µM (inactive)
